Reference: patent publication US11628162B2, “Methods of treating cancer with an FGFR inhibitor” (Incyte Corporation, priority 2019, dated 2023)
“Also recorded” adds a separate entry of the source.

How the values were obtained:
CYP2B6 = molecular target: T1, CYP2B6 (Homo sapiens, UniProt P20813); assay: In vitro metabolism of pemigatinib by recombinant human CYP2B6; assay type: in vitro ADME
T1 sequence (P20813 1-491): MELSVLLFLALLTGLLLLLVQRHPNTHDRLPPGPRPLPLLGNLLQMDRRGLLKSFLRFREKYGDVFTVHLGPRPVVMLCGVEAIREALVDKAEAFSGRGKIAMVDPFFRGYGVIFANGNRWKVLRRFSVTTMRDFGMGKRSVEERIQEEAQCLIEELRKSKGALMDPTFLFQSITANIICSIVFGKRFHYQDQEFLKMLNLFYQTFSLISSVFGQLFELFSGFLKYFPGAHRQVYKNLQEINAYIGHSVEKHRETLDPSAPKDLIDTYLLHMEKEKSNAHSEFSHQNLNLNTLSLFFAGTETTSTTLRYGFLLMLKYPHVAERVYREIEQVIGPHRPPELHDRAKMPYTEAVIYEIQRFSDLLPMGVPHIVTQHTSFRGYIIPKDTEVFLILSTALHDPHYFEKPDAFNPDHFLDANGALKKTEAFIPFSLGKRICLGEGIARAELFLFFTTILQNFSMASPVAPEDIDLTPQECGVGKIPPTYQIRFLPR
Description: (§1) In vitro metabolism studies were conducted to determine the human cytochrome P450 (CYP) isozyme(s) capable of metabolizing pemigatinib.
(§2) In vitro metabolism studies were conducted to determine the individual human recombinant CYP isozymes capable of metabolizing pemigatinib (1 μM) and included CYP1A2, CYP2B6, CYP2C8, CYP2C9, CYP2C19, CYP2D6, or CYP3A4.

[1] = Phase 1 drug-drug interaction study: single-dose pemigatinib PK alone or with itraconazole or rifampin
CYP2C8 = molecular target: T2, CYP2C8 (Homo sapiens, UniProt P10632); assay: In vitro metabolism of pemigatinib by recombinant human CYP2C8; assay type: in vitro ADME
T2 sequence (P10632 1-490): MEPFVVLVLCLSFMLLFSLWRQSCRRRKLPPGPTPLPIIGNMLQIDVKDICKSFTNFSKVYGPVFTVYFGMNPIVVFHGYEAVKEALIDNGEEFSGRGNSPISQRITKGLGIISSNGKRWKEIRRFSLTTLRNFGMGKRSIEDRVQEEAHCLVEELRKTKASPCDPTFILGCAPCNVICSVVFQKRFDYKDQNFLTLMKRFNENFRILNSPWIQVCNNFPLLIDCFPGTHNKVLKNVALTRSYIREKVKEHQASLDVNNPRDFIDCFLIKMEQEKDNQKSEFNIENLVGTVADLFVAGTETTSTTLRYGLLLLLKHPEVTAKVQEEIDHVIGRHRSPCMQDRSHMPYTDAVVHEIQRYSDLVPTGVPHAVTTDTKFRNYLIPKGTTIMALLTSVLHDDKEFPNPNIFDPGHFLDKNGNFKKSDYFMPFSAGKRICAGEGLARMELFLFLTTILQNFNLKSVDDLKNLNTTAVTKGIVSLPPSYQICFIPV
Description: as §1, §2

CYP2D6 = CYP2D6 (Homo sapiens, UniProt P10635); assay: In vitro metabolism of pemigatinib by recombinant human CYP2D6; assay type: in vitro ADME
Description: as §1, §2

CYP2C9 = CYP2C9 (Homo sapiens, UniProt P11712); assay: In vitro metabolism of pemigatinib by recombinant human CYP2C9; assay type: in vitro ADME
Description: as §1, §2

clinical = conditions: human, plasma
[2] = Mass balance and metabolite identification (human ADME) data; assay type: in vivo
[3] = Phase I dose escalation and dose expansion study, observed PK in cancer patients; assay type: in vivo; conditions: human, plasma, geometric mean; for AUC: read-out: Observed AUCss; for Cmax: read-out: Observed Cmax, ss
Description: The pemigatinib PBPK model was developed from healthy volunteer was used to describe cancer patients PK data from phase I dose escalation and dose expansion study (6-20 mg). The model was used to predict pemigatinib plasma concentration-time curves in cancer patients after multiple oral dose of 6, 9, 13.5 and 20 mg pemigatinib because only one patient was dosed for 1, 2 and 4 mg, respectively.

CYP3A4 = molecular target: T3, CYP3A4 (Homo sapiens, UniProt P08684); assay: In vitro metabolism of pemigatinib by recombinant human CYP3A4; assay type: in vitro ADME
T3 construct: host or cells: in silico (Simcyp virtual population); observed values come from healthy volunteers
Description: as §1, §2

[4] = Cohort 1: 4.5 mg pemigatinib alone or with itraconazole 200 mg QD, geometric mean
[5] = Cohort 1: 4.5 mg pemigatinib alone or with itraconazole 200 mg QD, mean ± SD
[6] = Cohort 2: 13.5 mg pemigatinib alone or with rifampin 600 mg QD, geometric mean
[7] = Cohort 2: 13.5 mg pemigatinib alone or with rifampin 600 mg QD, mean ± SD
[8] = pemigatinib with/without itraconazole, geometric mean

T3 sequence (P08684 whole entry): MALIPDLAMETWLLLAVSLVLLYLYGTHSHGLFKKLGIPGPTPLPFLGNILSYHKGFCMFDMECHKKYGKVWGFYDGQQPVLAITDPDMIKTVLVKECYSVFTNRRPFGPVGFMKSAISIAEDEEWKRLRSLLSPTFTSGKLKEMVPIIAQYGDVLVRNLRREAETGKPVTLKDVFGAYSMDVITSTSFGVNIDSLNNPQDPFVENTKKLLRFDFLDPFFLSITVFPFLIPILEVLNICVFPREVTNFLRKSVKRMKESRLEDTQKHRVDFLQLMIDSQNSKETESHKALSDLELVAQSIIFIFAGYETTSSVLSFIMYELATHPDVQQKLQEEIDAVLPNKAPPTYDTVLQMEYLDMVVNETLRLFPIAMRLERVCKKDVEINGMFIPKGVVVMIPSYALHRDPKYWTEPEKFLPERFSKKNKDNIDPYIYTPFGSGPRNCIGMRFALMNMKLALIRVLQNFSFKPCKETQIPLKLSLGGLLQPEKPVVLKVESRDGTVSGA
Sequence of CYP2C9 (P11712 whole entry): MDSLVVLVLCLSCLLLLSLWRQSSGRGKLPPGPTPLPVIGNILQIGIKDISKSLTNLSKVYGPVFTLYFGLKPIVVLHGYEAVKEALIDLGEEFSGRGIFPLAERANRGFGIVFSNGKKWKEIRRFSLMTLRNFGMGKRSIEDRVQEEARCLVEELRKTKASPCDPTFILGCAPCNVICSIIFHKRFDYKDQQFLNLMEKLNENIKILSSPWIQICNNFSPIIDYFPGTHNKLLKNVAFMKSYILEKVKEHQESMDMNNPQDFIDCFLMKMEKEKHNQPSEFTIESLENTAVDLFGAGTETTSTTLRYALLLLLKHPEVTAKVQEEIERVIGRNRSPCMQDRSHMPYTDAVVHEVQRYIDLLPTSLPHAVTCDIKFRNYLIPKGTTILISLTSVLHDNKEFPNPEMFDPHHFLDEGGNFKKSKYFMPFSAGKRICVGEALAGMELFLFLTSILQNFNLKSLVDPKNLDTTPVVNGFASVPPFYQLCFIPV
Sequence of CYP2D6 (P10635 whole entry): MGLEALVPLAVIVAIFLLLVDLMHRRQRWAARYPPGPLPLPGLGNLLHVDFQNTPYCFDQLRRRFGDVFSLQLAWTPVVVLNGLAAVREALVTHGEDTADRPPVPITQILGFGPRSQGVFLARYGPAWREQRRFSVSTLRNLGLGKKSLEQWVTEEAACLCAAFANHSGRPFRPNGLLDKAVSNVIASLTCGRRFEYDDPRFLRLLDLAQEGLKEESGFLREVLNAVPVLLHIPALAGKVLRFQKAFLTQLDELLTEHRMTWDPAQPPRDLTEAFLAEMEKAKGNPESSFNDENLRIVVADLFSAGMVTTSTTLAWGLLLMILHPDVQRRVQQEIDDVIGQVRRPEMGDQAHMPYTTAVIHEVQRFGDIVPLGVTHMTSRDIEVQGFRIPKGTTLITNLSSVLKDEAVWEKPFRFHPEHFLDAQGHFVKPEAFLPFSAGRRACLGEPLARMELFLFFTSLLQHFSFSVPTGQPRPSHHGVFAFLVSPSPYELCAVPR

In the case of `CCN1C(=O)N(c2c(F)c(OC)cc(OC)c2F)Cc2cnc3[nH]c(CN4CCOCC4)cc3c21` [Pemigatinib, 3-(2,6-difluoro-3,5-dimethoxyphenyl)-1-ethyl-8-(morpholin-4-ylmethyl)-1,3,4,7-tetrahydro-2H-pyrrolo[3′,2′: 5,6]pyrido[4,3-d]pyrimidin-2-one], the “Extent of in vitro metabolism by CYP2B6 (in words)” value (CYP2B6) is reported as “negligible”, the “Average Percent (N = 2) of Pemigatinib Remaining vs Control (30 mins)” value (CYP2B6; recombinant CYP2B6, pemigatinib 1 μM, 30 min) is reported as 96% and the AUC0-t [1, 4] is reported as 0.634 µM·h. The “AUC0-∞” value [1, 4] was 0.672 µM·h, the CL/F [1, 4] was 13.7 L/h and the CL/F [1, 5] was 14.5 ± 4.55 L/h. For the same molecule, the t1/2 [1, 5] was 12.1 ± 2.74 h, the AUC0-t [1, 6] was 1.9 µM·h and the “AUC0-∞” value [1, 6] was 1.96 µM·h. For the same molecule, the CL/F [1, 6] was 14.1 L/h, the AUC0-t [1, 7] was 1.98 ± 0.526 µM·h and the CL/F [1, 7] was 14.8 ± 4.86 L/h. For the same molecule, the t1/2 [1, 7] was 12.9 ± 2.90 h, the Tmax ([1]; Cohort 2: 13.5 mg pemigatinib alone or with rifampin 600 mg QD, median) was 1.0 h and the “Oral clearance of pemigatinib (in words)” value ([1]; in vivo, po) was “low oral clearance”. For the same molecule, the “AUC Ratio, Observed” value [1, 8] was 1.88, the “Cmax Ratio, Observed” value [1, 8] was 1.17 and the Cmax ([1]; read-out: Observed Cmax, single oral 13.5 mg, geometric mean) was 158 nM. The “Extent of in vitro metabolism by CYP2C8 (in words)” value (CYP2C8) was “negligible”, the “Average Percent (N = 2) of Pemigatinib Remaining vs Control (30 mins)” value (CYP2C8; recombinant CYP2C8, pemigatinib 1 μM, 30 min) was 94% and the “Extent of in vitro metabolism by CYP2D6 (in words)” value (CYP2D6) was “negligible”. The “Average Percent (N = 2) of Pemigatinib Remaining vs Control (30 mins)” value (CYP2D6; recombinant CYP2D6, pemigatinib 1 μM, 30 min) was 94%, the “Extent of in vitro metabolism by CYP2C9 (in words)” value (CYP2C9) was “negligible” and the “Average Percent (N = 2) of Pemigatinib Remaining vs Control (30 mins)” value (CYP2C9; recombinant CYP2C9, pemigatinib 1 μM, 30 min) was 88%. It also gave an AUC0-t (clinical; oral, 4.5 mg) of 0.674 ± 0.246 µM·h, an AUC(0-inf) (clinical; oral, 4.5 mg) of 0.712 ± 0.252 µM·h and a Cmax (clinical; oral, 4.5 mg) of 55.2 nM. The Tmax (clinical; oral, 4.5 mg) was 2 h, the Vd/F (clinical; oral, 4.5 mg) was 244 ± 75.8 L and the half-life (clinical; oral, 4.5 mg) was 11.8 h. It also gave an AUC(0-inf) (clinical; oral, 13.5 mg) of 2.04 ± 0.556 µM·h, a Cmax (clinical; oral, 13.5 mg) of 176 nM and a Tmax (clinical; oral, 13.5 mg) of 1.5 h. The Vd/F (clinical; oral, 13.5 mg) was 267 ± 73.1 L, the half-life (clinical; oral, 13.5 mg) was 12.7 h and the AUC (clinical; po, 4.5 mg) was 0.672 µM·h. The Cmax (clinical; po, 4.5 mg) was 60.1 ± 25.3 nM, the Cmax (clinical; po, 13.5 mg) was 187 ± 63.3 nM and the “Oral absorption of pemigatinib (in words)” value ([2]; mass balance and metabolite identification data) was “nearly complete”. For the same molecule, the “Renal excretion (unchanged pemigatinib excreted in urine)” value ([2]; mass balance data) was ~1.0 % of the dose, the “Unchanged pemigatinib recovered in feces” value ([2]; mass balance data) was 1.3 % of the administered radioactive dose and the AUC ([3]; multiple oral dose 6 mg) was 1.11 µM·h. It also gave a Cmax ([3]; multiple oral dose 6 mg) of 101 nM, an AUC ([3]; multiple oral dose 9 mg) of 1.51 µM·h and a Cmax ([3]; multiple oral dose 9 mg) of 161 nM. The AUC ([3]; multiple oral dose 13.5 mg) was 2.6 µM·h, the Cmax ([3]; multiple oral dose 13.5 mg) was 175 nM and the AUC ([3]; multiple oral dose 20 mg) was 4.18 µM·h. For the same molecule, the Cmax ([3]; multiple oral dose 20 mg) was 380 nM, the “Extent of in vitro metabolism by CYP3A4 (in words)” value (CYP3A4) was “predominantly metabolized; also recorded: metabolized to the greatest extent” and the “Average Percent (N = 2) of Pemigatinib Remaining vs Control (30 mins)” value (CYP3A4; recombinant CYP3A4, pemigatinib 1 μM, 30 min) was 14%.
